Test results published in the NIST ThermoML archive (doi:10.1016/j.jct.2019.01.021).

Test: molar heat capacity at constant pressure
Details: 101.33 kPa, Crystal 2, Small (less than 1 g) adiabatic calorimetry

N.NS(=O)(=O)O [ammonium sulfamate]
Details | molar heat capacity at constant pressure [J/K/mol]
5 K | 0.003159
8.91 K | 0.2228
9.15 K | 0.2561
9.62 K | 0.3293
9.86 K | 0.3608
10 K | 0.3908
10.36 K | 0.4664
10.69 K | 0.5138
11.01 K | 0.5995
11.34 K | 0.6668
11.67 K | 0.7466
12.01 K | 0.8356
12.34 K | 0.9262
12.68 K | 1.013
13.01 K | 1.113
13.35 K | 1.229
13.69 K | 1.347
14.03 K | 1.465
14.37 K | 1.586
14.72 K | 1.72
15 K | 1.837
15.07 K | 1.857
15.42 K | 2
15.76 K | 2.155
16.11 K | 2.332
16.47 K | 2.484
16.82 K | 2.64
17.17 K | 2.83
17.52 K | 3.021
17.88 K | 3.204
18.24 K | 3.395
18.59 K | 3.592
18.95 K | 3.806
19.31 K | 4.033
19.67 K | 4.25
20 K | 4.407
20.03 K | 4.465
20.61 K | 4.831
21.36 K | 5.306
22.1 K | 5.824
22.85 K | 6.364
23.61 K | 6.908
24.36 K | 7.492
25 K | 7.982
25.12 K | 8.117
25.88 K | 8.748
26.65 K | 9.316
27.42 K | 9.947
28.19 K | 10.61
28.96 K | 11.3
29.73 K | 11.97
30 K | 12.22
30.51 K | 12.68
31.29 K | 13.41
32.06 K | 14.11
32.85 K | 14.85
33.63 K | 15.59
34.41 K | 16.31
35 K | 16.88
35.2 K | 17.03
35.98 K | 17.81
36.77 K | 18.53
37.56 K | 19.25
38.35 K | 19.96
39.14 K | 20.7
39.93 K | 21.44
40 K | 21.53
40.72 K | 22.21
41.51 K | 22.95
42.31 K | 23.72
43.1 K | 24.46
43.9 K | 25.22
44.69 K | 26
45 K | 26.19
45.49 K | 26.74
46.29 K | 27.42
47.09 K | 28.16
47.88 K | 28.92
48.68 K | 29.58
49.48 K | 30.31
50 K | 30.85
50.28 K | 31.01
51.08 K | 31.75
51.88 K | 32.46
52.68 K | 33.24
53.48 K | 34.09
54.28 K | 34.9
55 K | 35.75
55.08 K | 35.75
55.89 K | 36.24
56.69 K | 36.94
57.49 K | 37.64
58.29 K | 38.37
59.1 K | 39.05
59.91 K | 39.76
60 K | 39.91
60.71 K | 40.47
61.52 K | 41.17
62.32 K | 42.03
63.12 K | 42.86
63.92 K | 43.55
64.73 K | 44.16
65 K | 44.07
65.54 K | 44.89
66.34 K | 45.53
67.15 K | 46.21
67.95 K | 46.89
68.76 K | 47.59
69.57 K | 48.3
70 K | 49.06
70.38 K | 49.01
71.3 K | 49.73
72.35 K | 50.64
73.39 K | 51.54
74.44 K | 52.48
75 K | 53.21
75.48 K | 53.43
76.53 K | 54.35
77.58 K | 55.24
78.62 K | 56.18
79.67 K | 57.12
79.91 K | 57.2
80 K | 57.37
80.72 K | 58.02
80.96 K | 58.19
81.77 K | 58.95
82.01 K | 59.07
82.82 K | 59.87
83.05 K | 59.96
83.87 K | 60.82
84.1 K | 60.91
84.92 K | 61.73
85.15 K | 61.78
86.2 K | 62.6
87.24 K | 63.53
88.29 K | 64.43
89.34 K | 65.22
90 K | 65.68
90.39 K | 66.05
91.44 K | 66.98
92.49 K | 67.83
93.54 K | 68.65
94.59 K | 69.45
95.65 K | 70.24
96.7 K | 71.12
97.75 K | 71.89
98.8 K | 72.7
99.86 K | 73.47
100 K | 73.33
100.91 K | 74.3
101.96 K | 75.09
103.01 K | 75.85
104.06 K | 76.59
105.11 K | 77.34
106.16 K | 78.13
107.21 K | 78.85
108.26 K | 79.53
109.31 K | 80.3
110 K | 80.4
110.37 K | 80.98
111.42 K | 81.71
112.47 K | 82.4
113.53 K | 83.05
114.58 K | 83.71
115.63 K | 84.43
116.68 K | 85.1
117.74 K | 85.75
118.79 K | 86.44
119.84 K | 87.02
120 K | 86.89
120.9 K | 87.68
121.95 K | 88.37
123 K | 88.95
124.05 K | 89.55
125.11 K | 90.12
126.16 K | 90.78
127.21 K | 91.36
128.27 K | 92.02
129.32 K | 92.56
130 K | 92.71
130.38 K | 93.15
131.43 K | 93.76
132.49 K | 94.31
133.54 K | 94.78
134.59 K | 95.43
135.65 K | 95.99
136.7 K | 96.5
137.76 K | 97.01
138.81 K | 97.53
139.87 K | 98.13
140 K | 98.03
140.92 K | 98.63
141.97 K | 99.21
143.03 K | 99.69
144.09 K | 100.16
145.14 K | 100.67
146.2 K | 101.12
147.25 K | 101.64
148.31 K | 102.18
149.36 K | 102.59
150 K | 102.85
150.42 K | 103.11
151.47 K | 103.62
152.53 K | 104.13
153.58 K | 104.47
154.64 K | 105.04
155.69 K | 105.57
156.75 K | 105.98
157.8 K | 106.39
158.86 K | 106.87
159.91 K | 107.31
160 K | 107.34
160.97 K | 107.74
162.02 K | 108.15
163.08 K | 108.69
164.13 K | 109.09
165.19 K | 109.46
166.24 K | 109.98
167.3 K | 110.42
168.35 K | 110.83
169.41 K | 111.19
170 K | 111.5
170.46 K | 111.64
171.51 K | 112.13
172.57 K | 112.44
173.62 K | 112.78
174.67 K | 113.21
175.73 K | 113.67
176.78 K | 114.15
177.84 K | 114.52
178.89 K | 114.89
179.94 K | 115.32
180 K | 115.4
181 K | 115.71
182.05 K | 116.14
183.1 K | 116.41
184.16 K | 116.84
185.21 K | 117.3
186.26 K | 117.56
